A word on the inhibition: it is how much of the control response was suppressed. One may read the Ki as the dissociation constant of the complex between target and ligand, obtained from inhibition or displacement. A higher Ki goes with lower affinity.

This is an account of results in US7998978B2 (Pfizer Inc., priority 2006, dated 2011).

In the first test the target is T1, JNK1α1 (Homo sapiens, UniProt P45983).
T1 construct: catalytic domain containing amino acids 1-364 and N-terminal hexahistidine tag; hexahistidine (His6) (N); made in house; host or cells: E. coli BL21 (DE3)
T1 sequence (P45983 1-364): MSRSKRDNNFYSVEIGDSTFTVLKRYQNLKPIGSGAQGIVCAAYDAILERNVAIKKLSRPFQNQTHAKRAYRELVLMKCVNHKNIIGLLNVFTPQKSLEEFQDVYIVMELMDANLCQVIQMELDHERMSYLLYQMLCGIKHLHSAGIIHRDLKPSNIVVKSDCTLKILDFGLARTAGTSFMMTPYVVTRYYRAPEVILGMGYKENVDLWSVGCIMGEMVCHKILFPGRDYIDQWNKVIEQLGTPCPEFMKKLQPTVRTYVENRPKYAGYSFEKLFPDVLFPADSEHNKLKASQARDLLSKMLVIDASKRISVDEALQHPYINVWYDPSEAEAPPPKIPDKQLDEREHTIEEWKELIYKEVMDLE
Briefly: Coupled spectrophotometric (PK/LDH) JNK1α1 assay: % inhibition and Ki determination. Type of test: biochemical. The following applies: @1 uM; read-out: % Inhibition JNK-1. A digest of the protocol:
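Initial rates were taken from the absorbance decrease at 340 nm at 30° C. Ki was fitted with a tight-binding model over 11 concentrations (top 100 μM); single-point inhibition was tested at 1 or 10 μM.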
As to `CNC(=O)c1ccc2c(c1)CCO[C@H]2CCOc1ccc2cnc(N[C@H]3CC[C@H](O)CC3)nc2c1` [Example 292, (1S)-1-[2-({2-[(trans-4-hydroxycyclohexyl)amino]quinazolin-7-yl}oxy)ethyl]-N-methyl-3,4-dihydro-1H-isochromene-6-carboxamide], the inhibition at 1 µM is 54%. Consider `O[C@H]1CC[C@H](Nc2ncc3ccc(OCC(F)(F)c4ccccn4)cc3n2)CC1` [Example 290, trans-4-{[7-(2,2-difluoro-2-pyridin-2-ylethoxy)quinazolin-2-yl]amino}cyclohexanol], for which the inhibition at 1 µM amounted to 53%. With `O=C(NC1(CO)CCCC1)c1ccc2cnc(NC3CCCC3)nc2c1` [Example 421, 2-(cyclopentylamino)-N-[1-(hydroxymethyl)cyclopentyl]quinazoline-7-carboxamide], the inhibition at 1 µM was determined as 15%. On the same count and under the same terms, the value for `O=C(N[C@H](CO)c1ccccc1)c1cccc2cnc(N[C@H]3CC[C@H](O)CC3)nc12` [Example 470, 2-[(trans-4-hydroxycyclohexyl)amino]-N-[(1S)-2-hydroxy-1-phenylethyl]quinazoline-8-carboxamide] was 27%.

Still in this test, the particulars now being: @10 uM; read-out: % Inhibition JNK-1.
Consider `CC(C)(C)N1CC(CNC(=O)c2cccc3cnc(N[C@H]4CC[C@H](O)CC4)nc23)CC1=O` (stereo partly drawn) [Example 503, N-[(1-tert-butyl-5-oxopyrrolidin-3-yl)methyl]-2-[(trans-4-hydroxycyclohexyl)amino]quinazoline-8-carboxamide], for which the inhibition at 10 µM was determined as 54%. Regarding `CS(=O)(=O)Nc1ccc(CNc2cc3cc(-c4cn[nH]c4)ccc3cn2)cc1` [Example 237, N-[4-({[6-(1H-pyrazol-4-yl)isoquinolin-3-yl]amino}methyl)phenyl]methanesulfon-amide], the inhibition at 10 µM was determined as 41%. For the compound `Cc1nnc(CNC(=O)c2cccc3cnc(N[C@H]4CC[C@H](O)CC4)nc23)[nH]1` [Example 511, 2-[(trans-4-hydroxycyclohexyl)amino]-N-[(5-methyl-4H-1,2,4-triazol-3-yl)methyl]quinazoline-8-carboxamide], the inhibition at 10 µM was 47%. Turning to `Cc1cc(NC(=O)c2cccc3cnc(N[C@H]4CC[C@H](O)CC4)nc23)n(C(C)C)n1` [Example 312, 2-[(trans-4-hydroxycyclohexyl)amino]-N-(1-isopropyl-3-methyl-1H-pyrazol-5-yl)quinazoline-8-carboxamide], the inhibition at 10 µM worked out at 76%. For the compound `CC(C)(CO)NC(=O)c1ccc2cnc(NC3CCCC3)nc2c1` [Example 438, 2-(cyclopentylamino)-N-(2-hydroxy-1,1-dimethylethyl)quinazoline-7-carboxamide], the inhibition at 10 µM was determined as 63%.

Still in this test, the particulars now being: JNK-1.
As to `Cc1ccc2cnc(N[C@H]3CC[C@H](O)CC3)nc2c1OCC(=O)NC1CCS(=O)(=O)C1` (stereo partly drawn) [Example 211, N-(1,1-dioxidotetrahydro-3-thienyl)-2-({2-[(trans-4-hydroxycyclohexyl)amino]-7-methylquinazolin-8-yl}oxy)acetamide], affinity was put at a Ki of 1030 nM.

In the case of `Cc1ccc2cnc(N[C@H]3CC[C@H](O)CC3)nc2c1OCC(=O)N(C)C` [Example 207, 2-({2-[(trans-4-hydroxycyclohexyl)amino]-7-methylquinazolin-8-yl}oxy)-N,N-dimethylacetamide], the affinity, expressed as Ki, was 1060 nM. `CC(C)(N)CNC(=O)c1cccc2cnc(N[C@H]3CC[C@H](O)CC3)nc12` [Example 128, N-(2-amino-2-methylpropyl)-2-[(trans-4-hydroxycyclohexyl)amino]quinazoline-8-carboxamide] had a Ki of 3500 nM. In turn, `CN(C)CCOc1ccc2cnc(N[C@H]3CC[C@H](O)CC3)nc2c1` [Example 157, trans-4-({7-[2-(dimethylamino)ethoxy]quinazolin-2-yl}amino)cyclohexanol] returned a Ki of 1780 nM. For `NC[C@@H](NC(=O)c1ccc2cnc(N[C@H]3CC[C@H](O)CC3)nc2c1)c1ccccc1` [Example 101, N-[(1S)-2-amino-1-phenylethyl]-2-[(trans-4-hydroxycyclohexyl)amino]quinazoline-7-carboxamide], the Ki was 94 nM.

For the compound `O=C(CCc1cncnc1)Nc1cc2cc(-c3cn[nH]c3)ccc2cn1` [Example 29, N-[6-(1H-pyrazol-4-yl)isoquinolin-3-yl]-3-pyrimidin-5-ylpropanamide], the Ki was 22 nM. Compound `O=C(N[C@@H]1COC[C@H]1O)c1ccc2cnc(N[C@H]3CC[C@H](O)CC3)nc2c1` [Example 404, 2-[(trans-4-hydroxycyclohexyl)amino]-N-[(3R,4S)-4-hydroxytetrahydrofuran-3-yl]quinazoline-7-carboxamide] displayed a Ki of 667 nM. The compound `c1ccc(-c2nc(CNc3cc4cc(-c5cn[nH]c5)ccc4cn3)c[nH]2)cc1` [Example 225, N-[(2-phenyl-1H-imidazol-4-yl)methyl]-6-(1H-pyrazol-4-yl)isoquinolin-3-amine] had a Ki of 5160 nM.

Regarding `CNCCOc1ccc(-c2cccc3cnc(N[C@H]4CC[C@H](O)CC4)nc23)cc1` [Example 199, trans-4-[(8-{4-[2-(methylamino)ethoxy]phenyl}quinazolin-2-yl)amino]cyclohexanol], the affinity, expressed as Ki, was 98 nM.

Regarding `O=C(N[C@H](CO)Cc1ccccc1)c1ccc2cnc(NC3CCCCC3)nc2c1` [Example 395, N-[(1S)-1-benzyl-2-hydroxyethyl]-2-(cyclohexylamino)quinazoline-7-carboxamide], the Ki was 422 nM. Still for that read-out and setting: as for `CC[C@@H](CO)NC(=O)c1ccc2cnc(N[C@H]3CC[C@H](O)CC3)nc2c1` [Example 334, 2-[(trans-4-hydroxycyclohexyl)amino]-N-[(1S)-1-(hydroxymethyl)propyl]quinazoline-7-carboxamide], the figure is 480 nM; as for `CN([C@H]1CC[C@H](Nc2ncc3cccc(C(=O)N[C@@H]4CCC[C@H]4O)c3n2)CC1)S(C)(=O)=O` (relative stereo) [Example 142, N-[(trans)-2-hydroxycyclopentyl]-2-({trans-4-[methyl(methylsulfonyl)amino]cyclohexyl}amino)quinazoline-8-carboxamide], 226 nM; as for `O[C@H]1CC[C@H](Nc2ncc3cccc(OCC(F)(F)F)c3n2)CC1` [Example 244, trans-4-{[8-(2,2,2-trifluoroethoxy)quinazolin-2-yl]amino}cyclohexanol], 234 nM. `CC(C)Nc1ncc2ccc(C(=O)NC(CO)c3ccccc3)cc2n1` (stereo not shown) [Example 385, N-(2-hydroxy-1-phenylethyl)-2-(isopropylamino)quinazoline-7-carboxamide] came in with a Ki of 263 nM.

Take `CC(C)(O)c1ccc(CNC(=O)c2ccc3cnc(N[C@H]4CC[C@H](O)CC4)nc3c2)cc1` [Example 366, 2-[(trans-4-hydroxycyclohexyl)amino]-N-[4-(1-hydroxy-1-methylethyl)benzyl]quinazoline-7-carboxamide]: the Ki is 2170 nM. The compound `O=C(NC1CCOCC1)c1cccc2cnc(N[C@H]3CC[C@H](O)CC3)nc12` [Example 113, 2-[(trans-4-hydroxycyclohexyl)amino]-N-(tetrahydro-2H-pyran-4-yl)quinazoline-8-carboxamide] came in with a Ki of 271 nM.
